Data: patent US8920851B2, “Treatment of neurodegenerative diseases” (Velacor Therapeutics Pty Ltd, priority 2006, dated 2014)

Assays:
[1] = system: TAU441 transgenic (Tg) TMHT mice
From the text: (§1) This was done every Monday, Wednesday and Friday, and the water was weighed on exchange to measure consumption.

GSK-3β = GSK-3β Ser9 phosphorylation by immunoblot in PC3 cells; assay type: cell-based, human
From the text: The metabolic effects of insulin on glycogen synthesis are mediated by glycogen synthase kinase-3 (GSK-3), a direct downstream substrate of Akt. GSK-3 is a ubiquitously expressed serine/threonine kinase that phosphorylates and inactivates glycogen synthase. In response to activation of the insulin receptor, Akt phosphorylates and inactivates the repressor GSK-3, thereby stimulating glycogen synthesis [Cross et al., 1995]. […] Resolved whole cell lysates were subjected to immunoblot analysis with an antibody that specifically recognizes GSK-3β only when phosphorylated at Ser9, a site critical for its kinase activity, and comparison made with the cytoskeletal protein β-tubulin as a loading control.

human TAU441 = settings: TMHT mice
Procedure: as §1
After blood sampling transgenic mice were intracardially perfused with 0.9% sodium chloride. Brains were rapidly removed, and the right half was immersion fixed for 24 hours in freshly prepared 4% Paraformaldehyde and embedded in paraffin for histological investigations. The left hemisphere was frozen on dry ice and stored at −80° C. for possible later biochemical analysis.
In initially nine (9) brain hemispheres (≧3 per Tg animal group) histological evaluations were performed to qualitative and quantitative evaluate TAU pathology.
Fifteen (15) coronal consecutive sections (Leica SM 2000R) were cut (5 μm thick) at each of 5 different brain layers between Bregma −1.82 and −1.34 mm, which were chosen according to the morphology atlas “The Mouse Brain” from Paxinos and Franklin (2 ^d edition), for Gallyas staining and for determination TAU pathology with specific antibodies (AT180 and HT7). Tissues of all transgenic animals investigated were handled in exactly the same way to avoid bias due to variation of this procedure. Remaining brain hemispheres or tissue not used are saved and stored until the sponsor has decided to how to proceed or until end of the study.
TAU depositions were determined using the monoclonal TAU-antibodies AT180 and HT7 (Pierce Endogen®).
Five (5) μm thick coronal paraffin sections from each of the five different layers were stained with the above described monoclonal mouse anti-human TAU-antibodies (AT180—1:100; HT7—1:1000) and visualized using a secondary anti-mouse Cy3 (1:500, Jackson Laboratories®). The detailed staining protocols are set out below:
AT180 incubation protocol for the determination of human PHF-TAU depositions • 1.) Deparaffinize and hydrate tissue sections through Tissue Clear (Sakura®) and graded alcohol (Merck®) series. • 2.) Wash for 2 minutes in Aqua bidest (Fresenius-Kabi®) • 3.) Place tissue sections for antigen unmasking in 10% citrate buffer (Labvision®) for 15 minutes at 95° C. in a steamer and to cool down for 15 minutes at room temperature. • 4.) Wash sections for 2×5 minutes in PBS. • 5.) Block endogenous peroxidase with 1% hydrogen peroxide (Linaris®) in methanol (Merck®) for 10 minutes at room temperature. • 6.) Wash sections for 2×5 minutes in PBS. • 7.) Block unspecific bindings with MOM-Blocking Reagent (Vector®) for 60 minutes at room temperature in a damp chamber. • 8.) Wash sections for 2×5 minutes in PBS. • 9.) Block unspecific bindings with MOM-Diluent (Vector®) for 5 minutes at room temperature. • 10.) Incubate with AT180 (Pierce Endogen®; 1:100 in MOM-Diluent) for 60 minutes at room temperature in a damp chamber. • 11.) Wash sections for 3×5 minutes in PBS. • 12.) Block unspecific bindings with 10% Non-Immune Goat-Normal Serum (Dako®) for 10 minutes at room temperature in a damp chamber. • 13.) Wash sections for 2×5 minutes in PBS. • 14.) Incubate with Cy 3 Goat Anti-Mouse (Jackson®; 1:500 in MOM-Diluent) for 60 minutes at room temperature in a damp chamber. • 15.) Wash sections for 5 minutes in PBS. • 16.) Wash sections for 5 minutes in Aqua bidest. • 17.) Cover sections with Moviol and coverslips.

PP2A A-C dimer = target: T1, PP2A A-C dimer (Homo sapiens, UniProt P67775); experiment: Phosphopeptide / malachite green assay with purified PP2A; assay type: biochemical
T1 construct: purified PP2A A-C dimer purified from human red blood cells; purchased Upstate 14-111 (lot #28002); host or cells: human red blood cells (native purification)
Procedure: The amount of inorganic phosphate released by enzymatic activity was determined by the addition of malachite green, and absorbance read at 590 nm. Malachite green forms a stable green complex in the presence of molybdate and orthophosphate, allowing the concentration of inorganic phosphate present to be measured. Data is presented as mean absorbance at 590 nm from at least three independent experiments, ±SEM.
1 mg of synthetic phosphopeptides K-R-pT-I-R-R (Upstate #12-219) and R-R-A-pS-V-A (Upstate #12-220) were dissolved in 1.10-1.285 ml of dH2O to prepare a 1 mM solution, then aliquoted and stored at −20° C. until use. 0.01-0.05 U of purified PP2A A-C dimer purified from human red blood cells, or 0.05 U of rabbit PP1 purified from skeletal muscle was mixed with 500 μM of phosphopeptide and incubated in the presence of various treatments as indicated at 37° C. on a heating block for 15 min. Each reaction was made up to a total volume of 25 μl with pNPP buffer (50 mM Tris-HCl, pH 7.0, 100 μM CaCl2). The enzyme reaction was terminated by adding 100 μl of malachite green solution (0.034% malachite green in 10 mM ammonium molybdate, 1 N HCl, 3.4% ethanol, 0.01% Tween-20). Malachite green forms a stable green complex in the presence of molybdate and orthophosphate, allowing the amount of inorganic phosphate present to be measured. Absorbance was read in duplicate for each sample at 590 nm.

p70S6K = assay type: cell-based, human; settings: PC3 cells; LY294002 50 μM 1 hour, sodium selenate 500 μM 1 hour, okadaic acid 500 nM
Procedure: 5×10^5 PC3 prostate carcinoma cells were plated per well of a 6-well plate, allowed to attach for 8 hours, then serum starved overnight. […] Equal amounts of whole cell lysates (75 μg) were resolved by SDS-PAGE, and the level of p70S6K phosphorylation determined by immunoblot analysis with an antibody that specifically recognizes the p70S6K protein when phosphorylated on Thr389. Comparison is made with the protein loading control β tubulin.

T1 sequence (P67775 whole entry): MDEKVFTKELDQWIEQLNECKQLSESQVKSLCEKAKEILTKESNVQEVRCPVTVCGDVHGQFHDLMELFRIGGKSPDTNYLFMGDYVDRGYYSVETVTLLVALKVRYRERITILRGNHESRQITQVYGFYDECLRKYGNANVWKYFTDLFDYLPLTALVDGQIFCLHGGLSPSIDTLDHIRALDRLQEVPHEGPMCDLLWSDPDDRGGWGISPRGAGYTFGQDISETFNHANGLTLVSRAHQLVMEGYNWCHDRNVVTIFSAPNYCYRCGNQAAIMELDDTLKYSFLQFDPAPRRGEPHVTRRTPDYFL
T1 sequence (P30153 2-589 partner limits assumed): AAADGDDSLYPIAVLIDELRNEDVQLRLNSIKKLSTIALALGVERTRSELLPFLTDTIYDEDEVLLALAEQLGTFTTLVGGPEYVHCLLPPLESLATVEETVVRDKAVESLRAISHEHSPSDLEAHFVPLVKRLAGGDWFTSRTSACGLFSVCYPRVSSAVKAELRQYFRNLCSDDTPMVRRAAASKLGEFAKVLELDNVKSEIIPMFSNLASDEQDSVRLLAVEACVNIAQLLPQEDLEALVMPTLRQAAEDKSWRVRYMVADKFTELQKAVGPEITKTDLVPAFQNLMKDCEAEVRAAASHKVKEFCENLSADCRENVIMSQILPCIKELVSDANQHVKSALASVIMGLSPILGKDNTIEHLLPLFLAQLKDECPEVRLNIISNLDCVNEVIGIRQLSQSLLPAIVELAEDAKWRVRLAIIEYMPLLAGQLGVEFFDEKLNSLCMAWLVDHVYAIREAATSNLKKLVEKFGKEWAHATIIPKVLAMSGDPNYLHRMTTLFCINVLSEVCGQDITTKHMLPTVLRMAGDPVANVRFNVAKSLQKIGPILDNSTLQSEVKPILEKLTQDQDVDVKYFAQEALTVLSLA

O=[Se](=O)(O)O [sodium selenate]
Open Field activity parameters (activity, hyperactivity, rearing behaviour) ([1]; 1.2 mg per 100 mL drinking water, 12 weeks): uninfluenced | finding the platform in the Morris Water Maze versus three months younger baseline group ([1]; day 1): faster | finding the platform in the Morris Water Maze versus vehicle ([1]; day 1, 2 and 3, p≦0.01): faster | thigmotaxis: abidance in the centre of the Open Field box, turn 1 ([1]; drinking water, 1.5 months after treatment start, versus vehicle, T-test p=0.019): significant higher abidance in the centre of the Open Field box | curiosity behaviour (Nose poke) ([1]; drinking water, 12 weeks): remained unchanged | motor performance (Rota Rod) ([1]; drinking water, 12 weeks): remained unchanged | negative side effects and premature deaths ([1]; drinking water, 12 weeks): did not lead to any negative side effects or caused any premature deaths | thigmotactic behaviour, turn 2 ([1]; drinking water, end of treatment): normalized to the level of the vehicle controls | GSK-3β phosphorylation at Ser9, time course (GSK-3β; 500 μM, 0 to 6 h): marked reduction in phosphorylation, which was maximal at 1 h and 3 h, and returned towards basal levels at the 6 h timepoint | reduction of GSK-3β phosphorylation levels (GSK-3β; densitometry, sodium selenate 500 μM 3 h, LY294002 50 μM 1 h): over 20% | percentage of relative TAU area in the Amygdala (AT180), versus untreated baseline (human TAU441): not versus untreated baseline group | percentage of relative HT7-TAU area in the hippocampus (human TAU441; 1.2 mg, versus vehicle (ANOVA p<0.05, T-Test p=0.04) and untreated baseline (ANOVA p<0.05)): significantly reduced | percentage of relative AT180-TAU area in the hippocampus (human TAU441; 1.2 mg, versus vehicle (T-Test p=0.04)): reduced | percentage of relative TAU area in the Amygdala (AT180), versus vehicle (human TAU441; ANOVA p<0.05, T-Test p=0.0045): significantly reduced percentage of relative HT7-TAU area | TAU load and TAU positive cells in the amygdala and neuronal layer of the hippocampal CA1 region (human TAU441; AT180 and HT7 immunoreactivity): visibly reduced TAU load as well as TAU positive cells | percentage of relative HT7-TAU area in the Amygdala (human TAU441; versus untreated baseline (ANOVA p<0.01) and vehicle (ANOVA p<0.05, T-test p=0.0018)): significantly reduced percentage of relative HT7-TAU area | PP2A phosphatase activity, serine phosphopeptide as substrate (PP2A A-C dimer; 50 μM of each selenium compound): clear boost in phosphatase activity | inorganic phosphate released from phosphopeptide by PP2A (PP2A A-C dimer; 0.01-0.05 U PP2A, 500 μM phosphopeptide, 15 min at 37° C., 50 μM sodium selenate): more than doubled | p70S6K phosphorylation on Thr389 (p70S6K): unaffected
